In BindingDB's records for PubMed 39642691 (University of California San Francisco):

Molecular target: T1, Pendrin (Homo sapiens, UniProt O43511)
T1 sequence (O43511 whole entry): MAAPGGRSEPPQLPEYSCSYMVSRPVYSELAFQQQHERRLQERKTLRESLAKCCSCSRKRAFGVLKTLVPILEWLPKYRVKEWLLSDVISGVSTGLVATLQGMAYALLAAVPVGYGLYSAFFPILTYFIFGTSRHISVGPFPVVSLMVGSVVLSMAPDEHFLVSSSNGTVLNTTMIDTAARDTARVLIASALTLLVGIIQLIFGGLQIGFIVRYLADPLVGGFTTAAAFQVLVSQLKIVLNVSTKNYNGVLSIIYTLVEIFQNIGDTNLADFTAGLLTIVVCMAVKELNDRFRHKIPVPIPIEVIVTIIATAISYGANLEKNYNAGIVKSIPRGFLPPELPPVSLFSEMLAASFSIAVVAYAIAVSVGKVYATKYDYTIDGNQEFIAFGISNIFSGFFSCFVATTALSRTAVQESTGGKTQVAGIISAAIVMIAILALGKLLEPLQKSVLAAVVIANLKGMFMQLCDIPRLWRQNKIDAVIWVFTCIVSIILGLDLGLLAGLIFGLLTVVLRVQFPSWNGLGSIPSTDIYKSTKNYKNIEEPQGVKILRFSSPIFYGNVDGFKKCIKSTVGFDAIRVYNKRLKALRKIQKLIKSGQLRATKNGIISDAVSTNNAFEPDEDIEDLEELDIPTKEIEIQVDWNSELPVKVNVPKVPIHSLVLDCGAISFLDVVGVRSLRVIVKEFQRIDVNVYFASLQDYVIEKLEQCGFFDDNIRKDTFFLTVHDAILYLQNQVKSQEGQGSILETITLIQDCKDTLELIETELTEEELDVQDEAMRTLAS
Assay: Inhibition of Pendrin (unknown origin) transfected in rat FRT cells assessed as reduction in Cl-/I- ions exchange by YFP fluorescence quenching assay

IC50: 650 nM
SMILES: Cc1oc2ccc(OCc3ccccc3Cl)cc2c1C(=O)O
